{"source": "patent US4414388A", "about": "“1-Oxo-1H-thiazolo[3,2-a]pyrimidine-2-carboxamides” (Pfizer Inc., priority 1981, dated 1983)", "key": {"point mutations": {"tested_on": "point mutations", "assay": "Ames test in vitro", "assay_type": "cell-based"}, "glucose tolerance": {"tested_on": "glucose tolerance", "assay": "glucose tolerance", "assay_type": "in vivo, rat", "conditions": "10, 30, or 100 mg/kg p.o. with glucose 1 g/kg p.o.", "source_text": "This effect may be due to a delayed absorption of glucose related to a possible effect on gastric emptying."}, "inhaled histamine": {"tested_on": "inhaled histamine", "assay": "bronchoconstrictive effects of inhaled histamine", "assay_type": "in vivo, guinea pig", "conditions": "30 mg/kg i.p."}, "[1]": {"tested_on": "cold-restraint stress gastric ulcer", "assay": "cold-restraint stressed rat assay", "assay_type": "in vivo", "procedure": "The effectiveness of the products of this invention as anticulcer agents is determined by the so-called cold-restraint stressed rat assay. In this test nonfasted female rats (Charles River C-D strain) weighing 70-140 gms. are administered the drug or carrier (control animals) intraperitoneally (in saline solution containing 1% carboxymethylcellulose and 0.1% Tween 80) or orally (in water) three hours before being lightly anesthetized with ether and taped in the supine position to individual sheets of plexiglass. After recovery from anesthesia, the restrained animals are positioned horizontally in a refrigerator maintained at 10°-12° C. and three hours later sacrificed by cervical dislocation. The abdomen of each rat is opened, the pylorus clamped, the stomach inflated with saline via an oral tube, the esophagus clamped and the stomach excised. The stomachs are placed in a 0.4% formaldehyde solution for approximately 30 seconds to harden the outer layers and facilitate examination. Each stomach is then cut open along the greater curvature and the glandular portion (hind stomach) examined for damage. The number of gastric erosions, their severity and the color of the stomachs is recorded. […]"}, "[2]": {"assay": "plasma concentration / oral absorption in dogs", "assay_type": "in vivo, dog", "procedure": "This is supported by the observations of plasma concentrations of 3 to 7 μg/ml one hour after oral administration of III, 50 to 300 mg/kg."}, "[3]": {"tested_on": "phenylbutazone gastric ulcer", "assay": "phenylbutazone gastric ulcer model", "assay_type": "in vivo", "conditions": "po", "source_text": "Miller et al., Gut 20, 75 (1979); Robert et al., Gastroenterology 72, 1121 (1977).] aptly characterizes the effects of compound III."}, "IgE": {"tested_on": "IgE", "assay": "passive cutaneous anaphylaxis (PCA) test, oral, IgE (reaginic antiserum) site", "assay_type": "in vivo, rat", "conditions": "Table I, 1 mg./kg.", "procedure": "The antiallergy property of the compounds of this invention is evaluated by the passive cutaneous anaphylaxis (PCA) test (Ovary, J. Immun., 81, 355, 1958). In the PCA test, normal animals are injected intradermally (i.d.) with antibodies contained in serum obtained from actively sensitized animals. The animals are then challenged intravenously with antigen mixed with a dye such as Evans' Blue. The increased capillary permeability caused by the antigen-antibody reaction causes the dye to leak from the site of the antibody injection. The test animals are then asphyxiated and the intensity of the reaction determined by measuring the diameter and intensity of the blue coloration on the inner surface of the animals' skin.\nThe PCA test is a measure of the anti-allergic (especially anti-asthmatic) activity of a compound. Compounds which inhibit a positive PCA test induced by the rat immunochemical counterpart of human immunoglobulin E (IgE), or reagin, are considered to have anti-allergic activity (C. Mota, Ann. N.Y. Acad. Sci., 103, 264 1963). (Reagin is primarily immunoglobulin E [IgE] and is the principal immunoglobulin responsible for allergic asthma, anaphylaxis, hay fever, food sensitivities and certain manifestations of drug sensitivities, although recent evidence ascribes to the IgG class of antibodies a significant role in the mediation of allergic diseases). Such compounds when administered to a sensitized subject, human or animal, prior to the time when the subject comes into contact with antigens or substances to which it is allergic, will prevent the allergic reaction which would otherwise occur. They, therefore, provide a method for the prophylactic treatment of allergy or anaphylactic reactions of a reagin mediated nature.\nTo put it another way, such compounds block the release of mediators resulting from the antigen-antibody (allergic) reaction as illustrated in the PCA test using rat homocytotropic antibody--a known correlate of human reaginic antibody. Inhibition of reaginic antigen-antibody reactions in rats, the test animal of the PCA test, is regarded as representative of inhibition of human reaginic antigen-antibody reactions which occur during allergic episodes.\nThe ability of agents to interfere with PCA reactions is measured in male Charles River Wistar rats, 170-210 g. Reaginic antiserum, rich in IgE antibodies, is prepared according to Petillo et al., Int. Arch. Allergy, 44, 309 (1973). Hyperimmune antiserum rich in IgG antibodies to hen egg albumin is prepared according to Orange et al., J. Exptl. Med., 127, 767 (1968). Forty-eight hours prior to antigen challenge, the reaginic antiserum is injected intradermally (i.d.) into the shaved skin of a normal rat's back; 5 hours before challenge the hyperimmune antisera is similarly injected. At a third site 60 mcg. histamine dihydrochloride and 0.5 mcg. serotonin creatinine sulfate are injected i.d. just prior to antigen challenge as a check for antihistaminic, antiserotonin and unspecific types of blockage; the compounds of the instant invention or saline are then administered i.v. and immediately followed by the challenge of 5 mg. egg albumen and 2.5 mg. Evans' Blue dye in saline. In the case of oral administration Evans' Blue dye and egg albumin are given 5 minutes after administration of the drug. Thirty minutes later the animals are asphyxiated using chloroform and the skin of the back removed and reversed for observation. A score is assigned each injection site equal to the product of the diameter of the site in mm. and a grade of 0.1, 0.5, 1, 2, 3 or 4 proportional to intensity of dye coloration. The scores for a given injection site are summed for each group of five animals and compared to the saline treated controls. The difference is expressed as percent blockage due to the compound employed. […]"}, "[4]": {"tested_on": "passive systemic anaphylaxis", "assay": "passive systemic anaphylaxis (rise in plasma histamine on antigen challenge)", "assay_type": "in vivo, rat"}}}
{"smiles": "O=C(Nc1nnn[nH]1)c1cnc2sc3c(n2c1=O)CCCC3", "note": "[compound III, N-(5-tetrazolyl)-1-oxo-1H-cyclohexenothiazolo[3,2-a]pyrimidine-2-carboxamide]", "values": [{"measurement": "point mutations, Ames test", "setting": "point mutations", "value": "did not induce point mutations"}, {"measurement": "effect on glucose tolerance", "setting": "glucose tolerance", "value": "apparent dose-dependent improvement in glucose tolerance"}, {"measurement": "protection against bronchoconstrictive effects of inhaled histamine", "setting": "inhaled histamine", "value": "not protected"}, {"measurement": "potency in the cold-restraint stress gastric ulcer procedure and the ethanol-induced rat ulcer assay, in words", "setting": "[1]; oral", "value": "highly potent"}, {"measurement": "potency in the cold-restraint stressed rat assay", "setting": "[1]; rat, in vivo", "value": "extremely potent"}, {"measurement": "oral absorption, dog", "setting": "[2]; oral suspensions or capsules", "value": "absorbed readily"}, {"measurement": "concentration at 1 h", "setting": "[2]; plasma, dog, one hour, oral 50 to 300 mg/kg, suspensions or capsules, read-out: plasma concentration one hour after oral administration, dog", "value": "9000 to 26000", "unit": "ng/mL"}, {"measurement": "ED50", "setting": "[3]", "value": 0.2, "unit": "mg/kg"}, {"measurement": "Oral Activity (% of Protection) of Amides in the PCA Test, IgE 1 mg./kg.", "setting": "IgE", "value": 47, "unit": "%"}, {"measurement": "ED50", "setting": "[4]; Rattus norvegicus, iv, rats passively sensitized with IgE-rich antiserum", "value": 0.028, "unit": "mg/kg"}, {"measurement": "rise in plasma histamine caused by antigen challenge", "setting": "[4]; rat, in vivo", "value": "prevented"}]}
